Source: US12552758B2, “Inhibitors of MLH1 and/or PMS2 for cancer treatment” (NeoPhore Limited, priority 2020, dated 2026)

Columns and labels:
[1] = target: recombinant N-terminal PMS2 (residues 1-365) (Homo sapiens (Human), UniProt P54278); assay: Fluorescence polarisation assay for PMS2; type: binding; conditions: FP probe displacement; 10 nM N-terminal PMS2, 5 nM probe compound, read after 1 hour
Description: Fluorescence Polarisation Assay for PMS2
(§1) Test compounds, as 10 mM DMSO stocks, were dispensed into a Black Fluotrac 200 384 well medium binding plate (Greiner Bio-One, item number 781076) using a Labcyte Echo acoustic liquid handler. For single point screening, test compounds were added to wells in columns 1-22 whilst DMSO was added to wells in columns 23 and 24 in order to normalise the plate. For potency determination, serial dilutions of test compounds were added to wells in columns 3-22 and DMSO volume was normalised across the plate.
20 μL assay buffer was added to all wells in columns 1 and 24 (column 24 only for single point screening) using a MultiDrop Combi (ThermoFisher). Plates were centrifuged for 1 minute at 250×g and were incubated at room temperature for 30 minutes prior to the addition of 20 μL of 2×([…]) of 5-((5-(4-((2-(2,4-dihydroxy-5-isopropylbenzoyl)isoindolin-5-yl)methyl)piperazin-1-yl)pentyl)carbamoyl)-2-(6-(dimethylamino)-3-(dimethyliminio)-3H-xanthen-9-yl)benzoate (referred to hereinafter as “probe compound”) in assay buffer (prepared from a 100 μM DMSO stock) with a MultiDrop Combi (ThermoFisher). The final concentration of N-terminal PMS2 was 10 nM and the final concentration of probe compound was 5 nM.
(§2) Compound plates were centrifuged for 1 minute at 250×g for 1 minute and were incubated at room temperature for 1 hour before being read on a PheraStar FSX (fitted with 384-well aperture spoon and 540 590 590 FP optic module). The gain and focus were adjusted before each plate was read so that the polarisation of a no enzyme control (column 24) was equal to 35 mP. Data were normalised against the no inhibitor controls (column 23) and no enzyme controls (column 24).

[2] = target: recombinant N-terminal MLH1 (residues 15-340) (Homo sapiens (Human), UniProt P40692); assay: Fluorescence polarisation assay for MLH1 (protocol for all Examples except Examples 64, 76, 90 and 95); type: binding; conditions: FP probe displacement; 100 nM N-terminal MLH1, 5 nM probe compound, read after 15 minutes; all Examples except 64, 76, 90 and 95
Sequence of recombinant N-terminal MLH1 (residues 15-340) (P40692 15-340): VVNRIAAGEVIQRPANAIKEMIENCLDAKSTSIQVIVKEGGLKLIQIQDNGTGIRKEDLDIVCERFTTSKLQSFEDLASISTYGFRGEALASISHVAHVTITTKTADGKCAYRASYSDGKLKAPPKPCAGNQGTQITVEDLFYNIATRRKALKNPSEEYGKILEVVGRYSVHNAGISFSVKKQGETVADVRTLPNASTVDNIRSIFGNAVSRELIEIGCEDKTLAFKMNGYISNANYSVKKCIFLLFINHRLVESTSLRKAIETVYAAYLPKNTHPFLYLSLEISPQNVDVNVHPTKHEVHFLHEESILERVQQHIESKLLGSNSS
Description: Fluorescence Polarisation Assay for MLH1 (Protocol for all Examples Except Examples 64, 76, 90 and 95)
as §1
20 μL assay buffer was added to all wells in columns 1 and 24 (column 24 only for single point screening) using a MultiDrop Combi (ThermoFisher). Plates were centrifuged for 1 minute at 250×g and were incubated at room temperature for 30 minutes prior to the addition of 20 μL of 2×(10 nM) of 5-((5-(4-((2-(2,4-dihydroxy-5-isopropylbenzoyl)isoindolin-5-yl)methyl)piperazin-1-yl)pentyl)carbamoyl)-2-(6-(dimethylamino)-3-(dimethyliminio)-3H-xanthen-9-yl)benzoate (referred to hereinafter as “probe compound”) in assay buffer (prepared from a 100 μM DMSO stock) with a MultiDrop Combi (ThermoFisher). The final concentration of N-terminal MLH1 was 100 nM and the final concentration of probe compound was 5 nM.
as §2, with “15 minutes” for “1 hour”

Sequence of recombinant N-terminal PMS2 (residues 1-365) (P54278 1-365): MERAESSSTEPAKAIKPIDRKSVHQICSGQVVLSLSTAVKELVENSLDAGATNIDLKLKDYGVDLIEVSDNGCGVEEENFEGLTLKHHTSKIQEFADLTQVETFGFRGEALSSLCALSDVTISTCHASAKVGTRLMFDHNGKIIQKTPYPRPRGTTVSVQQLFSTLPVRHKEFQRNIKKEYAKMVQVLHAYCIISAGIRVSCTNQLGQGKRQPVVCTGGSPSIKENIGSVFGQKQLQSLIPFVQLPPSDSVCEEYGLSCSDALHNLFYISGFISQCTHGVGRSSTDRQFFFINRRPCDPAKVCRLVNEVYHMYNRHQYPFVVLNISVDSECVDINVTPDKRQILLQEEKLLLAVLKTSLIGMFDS

SMILES	IC50 [1]	IC50 [2]
CC(Oc1cc(O)cc(O)c1C(=O)N1CCCC1)c1ccccc1 (single isomer, unassigned) [Example 14]	> 10 µM	> 10 µM
O=C(c1c(O)cc(O)cc1OCc1ncccn1)N1CCCC1 [Example 1, [2,4-dihydroxy-6-(pyrimidin-2-ylmethoxy)phenyl]-pyrrolidin-1-yl-methanone]	> 10 µM	> 10 µM
O=C(c1c(O)cc(O)cc1OC1CCCC1)N1CCCC1 [Example 2, (2-(cyclopentyloxy)-4,6-dihydroxyphenyl)(pyrrolidin-1-yl)methanone]	> 10 µM	> 10 µM
O=C(c1c(O)cc(O)cc1OCc1ccccc1)N1CCCCC1 [Example 5, (2-benzyloxy-4,6-dihydroxy-phenyl)-(1-piperidyl)methanone]	> 10 µM	> 10 µM
O=C(c1c(O)cc(O)cc1OCc1ccccc1)N1CCC[C@@H](O)C1 [Example 8, (2-benzyloxy-4,6-dihydroxy-phenyl)-[(3R)-3-hydroxy-1-piperidyl]methanone]		> 10 µM
O=C(c1c(O)cc(O)cc1OCc1ccccc1)N1CCC[C@H](O)C1 [Example 9, (2-benzyloxy-4,6-dihydroxy-phenyl)-[(3S)-3-hydroxy-1-piperidyl]methanone]		> 10 µM
Cc1c(O)cc(O)c(C(=O)N2CCCC2)c1OCc1ccccc1 [Example 10, (2-benzyloxy-4,6-dihydroxy-3-methyl-phenyl)-pyrrolidin-1-yl-methanone]	1 to 10 µM	> 10 µM
O=C(c1c(O)cc(O)cc1OCc1ccccn1)N1CCCC1 [Example 12, [2,4-dihydroxy-6-(2-pyridylmethoxy)phenyl]-pyrrolidin-1-yl-methanone]	> 10 µM	> 10 µM
O=C(c1c(O)cc(O)cc1OCc1ccc(F)cc1)N1CCCC1 [Example 15, [2-[(4-fluorophenyl)methoxy]-4,6-dihydroxy-phenyl]-pyrrolidin-1-yl-methanone]	> 10 µM	> 10 µM
COc1ccc(COc2cc(O)cc(O)c2C(=O)N2CCCC2)cc1 [Example 16, [2,4-dihydroxy-6-[(4-methoxyphenyl)methoxy]phenyl]-pyrrolidin-1-yl-methanone]	> 10 µM	> 10 µM
O=C(c1c(O)cc(O)cc1OCc1c[nH]nn1)N1CCCC1 [Example 22, [2,4-dihydroxy-6-(1H-triazol-4-ylmethoxy)phenyl]-pyrrolidin-1-yl-methanone]	> 10 µM	> 10 µM
O=C(c1c(O)cc(O)cc1OCc1ccccc1)N1Cc2ccc(Br)cc2C1 [Example 23, (2-benzyloxy-4,6-dihydroxy-phenyl)-(5-bromoisoindolin-2-yl)methanone]	< 1 µM	< 1 µM
COC(=O)c1ccc2c(c1)CN(C(=O)c1c(O)cc(O)cc1OCc1ccccc1)C2 [Example 24, methyl 2-(2-benzyloxy-4,6-dihydroxy-benzoyl)isoindoline-5-carboxylate]	< 1 µM	< 1 µM
COc1ccc2c(c1)CN(C(=O)c1c(O)cc(O)cc1OCc1ccccc1)C2 [Example 25, (2-benzyloxy-4,6-dihydroxy-phenyl)-(5-methoxyisoindolin-2-yl)methanone]	< 1 µM	< 1 µM
CC(Oc1cc(O)cc(O)c1C(=O)N1Cc2ccccc2C1)c1ccccc1 (stereo not drawn) [Example 27, [2,4-dihydroxy-6-(1-phenylethoxy)phenyl]-isoindolin-2-yl-methanone]	< 1 µM	1 to 10 µM
COc1ccc2c(c1)CN(C(=O)c1c(O)cc(O)cc1OC(C)c1ccccc1)C2 (stereo not drawn) [Example 28, [2,4-dihydroxy-6-(1-phenylethoxy)phenyl]-(5-methoxyisoindolin-2-yl)methanone]	< 1 µM	1 to 10 µM
COc1cc2c(cc1OC)CN(C(=O)c1c(O)cc(O)cc1OC(C)c1ccccc1)C2 (stereo not drawn) [Example 29, [2,4-dihydroxy-6-(1-phenylethoxy)phenyl]-(5,6-dimethoxyisoindolin-2-yl)methanone]	< 1 µM	1 to 10 µM
Cc1c(O)cc(O)c(C(=O)N2CCc3ccccc3C2)c1OCc1ccccn1 [Example 45, 3,4-dihydro-1H-isoquinolin-2-yl-[4,6-dihydroxy-3-methyl-2-(2-pyridylmethoxy)phenyl]methanone]		> 10 µM
Cc1c(O)cc(O)c(C(=O)N2CCOc3ccccc32)c1OCc1ccccc1 [Example 67, (2-(Benzyloxy)-4,6-dihydroxy-3-methylphenyl)(2,3-dihydro-4H-benzo[b][1,4]oxazin-4-yl)methanone]		> 10 µM

Other lines, results leading:

IC50 [1]	IC50 [2]	SMILES
> 10 µM	> 10 µM	CC(Oc1cc(O)cc(O)c1C(=O)N1CCCC1)c1ccccc1 (single isomer, unassigned) [Example 13]
> 10 µM	> 10 µM	O=C(c1c(O)cc(O)cc1OCc1ccccc1)N1CCCC1 [Example 3, (2-benzyloxy-4,6-dihydroxy-phenyl)-pyrrolidin-1-yl-methanone]
< 1 µM	< 1 µM	O=C(c1c(O)cc(O)cc1OCc1ccccc1)N1Cc2ccccc2C1 [Example 4, (2-benzyloxy-4,6-dihydroxy-phenyl)-isoindolin-2-yl-methanone]
> 10 µM	> 10 µM	O=C(c1c(O)cc(O)cc1OCc1ccccc1)N1CC[C@H](O)C1 [Example 6, (2-benzyloxy-4,6-dihydroxy-phenyl)-[(3S)-3-hydroxypyrrolidin-1-yl]methanone]
> 10 µM	> 10 µM	O=C(c1c(O)cc(O)cc1OCc1ccccc1)N1CC[C@@H](O)C1 [Example 7, (2-benzyloxy-4,6-dihydroxy-phenyl)-[(3R)-3-hydroxypyrrolidin-1-yl]methanone]
> 10 µM	> 10 µM	CCc1c(O)cc(O)c(C(=O)N2CCCC2)c1OCc1ccccc1 [Example 11, (2-benzyloxy-3-ethyl-4,6-dihydroxy-phenyl)-pyrrolidin-1-yl-methanone]
	> 10 µM	Cc1cccc(COc2cc(O)cc(O)c2C(=O)N2CCCC2)c1 [Example 17, [2,4-dihydroxy-6-(m-tolylmethoxy)phenyl]-pyrrolidin-1-yl-methanone]
1 to 10 µM	1 to 10 µM	O=C(c1c(O)cc(O)cc1OCc1ccccc1)N1Cc2cccnc2C1 [Example 18, (2-benzyloxy-4,6-dihydroxy-phenyl)-(5,7-dihydropyrrolo[3,4-b]pyridin-6-yl)methanone]
< 1 µM	< 1 µM	COc1cccc2c1CN(C(=O)c1c(O)cc(O)cc1OCc1ccccc1)C2 [Example 19, (2-benzyloxy-4,6-dihydroxy-phenyl)-(4-methoxyisoindolin-2-yl)methanone]
> 10 µM	> 10 µM	O=C(c1c(O)cc(O)cc1OCc1ccncn1)N1CCCC1 [Example 20, [2,4-dihydroxy-6-(pyrimidin-4-ylmethoxy)phenyl]-pyrrolidin-1-yl-methanone]
> 10 µM	> 10 µM	O=C(c1c(O)cc(O)cc1OCc1cc[nH]n1)N1CCCC1 [Example 21, (2-((1H-pyrazol-3-yl)methoxy)-4,6-dihydroxyphenyl)(pyrrolidin-1-yl)methanone]
< 1 µM	1 to 10 µM	COc1cc2c(cc1OC)CN(C(=O)c1c(O)cc(O)cc1OCc1ccccc1)C2 [Example 26, (2-benzyloxy-4,6-dihydroxy-phenyl)-(5,6-dimethoxyisoindolin-2-yl)methanone]
< 1 µM	> 10 µM	Cc1cccc(COc2c(C)c(O)cc(O)c2C(=O)N2Cc3cccnc3C2)c1 [Example 31, 5,7-dihydropyrrolo[3,4-b]pyridin-6-yl-[4,6-dihydroxy-3-methyl-2-(m-tolylmethoxy)phenyl]methanone]
	> 10 µM	COc1ccc2c(c1)CN(C(=O)c1c(O)cc(O)c(C)c1OCc1ccccn1)CC2 [Example 46, [4,6-dihydroxy-3-methyl-2-(2-pyridylmethoxy)phenyl]-(7-methoxy-3,4-dihydro-1H-isoquinolin-2-yl)methanone]
